Assay results taken from patent US8568815B2, “Soluble complexes of curcumin” (Novobion Oy, priority 2008, dated 2013).

Assay: Photostability, illumination with high intensity mercury lamp
Type: physicochemical
Conditions: methanol solution; dissolved in methanol (4 mmol/l), mercury lamp 200-600 nm; read-out: Half-life of decomposition during illumination

In the case of `COc1cc(/C=C/C(=O)CC(=O)/C=C/c2ccc(O)c(OC)c2)ccc1O` [curcumin], the half-life at 4 mmol/l is reported as 1.08 h.
